Results taken from ChEMBL document CHEMBL1932973, “5- and 6-membered (thio)lactones are prodrug type carbonic anhydrase inhibitors” (Bioorg Med Chem Lett, 2012).

Tests used:
Carbonic anhydrase 2 [1] = molecular target: T1, Carbonic anhydrase 2 (Homo sapiens, UniProt P00918); assay: Inhibition of human CA2 pre-incubated for 15 mins to 24 hrs measured after 6 hrs by phenol red-based stopped-flow CO2 hydrase assay
Carbonic anhydrase 9 [2] = molecular target: T2, Carbonic anhydrase 9 (Homo sapiens, UniProt Q16790); assay: Inhibition of human CA9 pre-incubated for 15 mins to 24 hrs measured after 6 hrs by phenol red-based stopped-flow CO2 hydrase assay
Carbonic anhydrase 1 [3] = molecular target: T3, Carbonic anhydrase 1 (Homo sapiens, UniProt P00915); assay: Inhibition of human CA1 pre-incubated for 15 mins to 24 hrs measured after 6 hrs by phenol red-based stopped-flow CO2 hydrase assay
T3 sequence (P00915 whole entry): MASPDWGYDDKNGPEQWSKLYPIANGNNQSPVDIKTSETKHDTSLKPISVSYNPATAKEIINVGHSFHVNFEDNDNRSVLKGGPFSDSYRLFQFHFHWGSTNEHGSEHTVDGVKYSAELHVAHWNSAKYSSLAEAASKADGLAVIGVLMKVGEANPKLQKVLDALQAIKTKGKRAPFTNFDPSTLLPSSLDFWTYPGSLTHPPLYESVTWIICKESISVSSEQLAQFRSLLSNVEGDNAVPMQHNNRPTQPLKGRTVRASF

Carbonic anhydrase 1 [4] = molecular target: T3, Carbonic anhydrase 1; assay: Inhibition of human CA1 pre-incubated for 15 mins to 24 hrs measured after 15 mins by phenol red-based stopped-flow CO2 hydrase assay
Carbonic anhydrase 9 [5] = molecular target: T2, Carbonic anhydrase 9; assay: Inhibition of human CA9 pre-incubated for 15 mins to 24 hrs measured after 15 mins by phenol red-based stopped-flow CO2 hydrase assay
Carbonic anhydrase 2 [6] = molecular target: T1, Carbonic anhydrase 2; assay: Inhibition of human CA2 pre-incubated for 15 mins to 24 hrs measured after 15 mins by phenol red-based stopped-flow CO2 hydrase assay

| SMILES | Ki (Carbonic anhydrase 2 [1]) | Ki (Carbonic anhydrase 9 [2]) | further results |
| --- | --- | --- | --- |
| O=C1C=CCCO1 | > 100 µM | 1.35 µM |  |
| CC1CCC(=O)O1 (stereo unspecified) | > 100 µM | 0.92 µM |  |
| O=c1cccco1 | > 100 µM | 1.6 µM |  |
| O=C(O)/C=C/c1ccccc1O [O-COUMARIC ACID] |  | > 100 µM | Ki (Carbonic anhydrase 1 [3]): 3.4 µM |
| Cc1cc(C)oc(=O)c1 | > 100 µM |  |  |
| S=c1cccco1 | > 100 µM | 7.45 µM |  |
| Cc1cc(C)oc(=S)c1 | > 100 µM | 9.51 µM |  |
| COC1=CC(=O)OC1 | > 100 µM | 3.38 µM |  |
| O=C(O)/C=C/CCO |  |  | Ki (Carbonic anhydrase 1 [4]): 8.46 µM; Ki (Carbonic anhydrase 9 [5]): 1.15 µM; Ki (Carbonic anhydrase 2 [6]): > 100 µM |
| O=C1CCCCO1 | > 100 µM | 3.66 µM |  |
| O=C1C=CCO1 [FURAN-2(5H)-ONE] | > 100 µM |  |  |
